Assay results from publication PMC4435632, “Phase 1 study of ixazomib, an investigational proteasome inhibitor, in advanced non-hematologic malignancies” (Investigational New Drugs, 2015).

What was measured:
[1] = target: chymotrypsin-like activity of the β5 subunit of the 20S proteasome (Homo sapiens, UniProt P28074); assay: Whole blood 20S proteasome activity, fluorogenic assay; assay type: in vivo
Protocol: Blood samples for determination of plasma ixazomib concentrations for pharmacokinetic analysis (3 mL) and for measurement of whole blood 20S proteasome activity (1 mL) were collected at the following timepoints for all patients in the dose-escalation cohort and for the first 12 patients completing cycle 1 while receiving protocol-specified treatment at the MTD: pre-dose (within 1 h) on days 1, 4, 8, and 11 of cycle 1, and on day 1 of cycle 2; and on days 1 and 11, cycle 1, at 5, 15 and 30 min, and 1, 2, 4, 9, 24, 48, 96 (day 11 only), 120 (day 11 only), and 168 (day 11 only) h post-dose. A limited sampling schedule was employed for the remaining patients in the MTD expansion cohorts.
Plasma concentrations of ixazomib were measured using a good laboratory practice-validated liquid chromatography/tandem mass spectrometry (LC/MS/MS) assay with a lower limit of quantification of 0.5 ng/mL. Whole blood 20S proteasome activity (expressed as percent proteasome inhibition relative to baseline) was measured using an established fluorogenic assay, which evaluates the chymotrypsin-like activity of the β5 subunit of the 20S proteasome, the primary target of ixazomib. […]
(§1) All efficacy and safety data were summarized using descriptive statistics. Pharmacokinetic and pharmacodynamic parameters were calculated using noncompartmental methods (WinNonlin software v5.3).

[2] = system: patients with advanced non-hematologic malignancies; assay: Safety: adverse events graded by NCI-CTCAE v3.0, phase 1 study of IV ixazomib; assay type: in vivo
Excerpt: Patients received ixazomib as an IV bolus on days 1, 4, 8, and 11 of a 21-day cycle, for up to 12 cycles, or until disease progression or unacceptable toxicity. Patients who were thought to potentially benefit from prolonged therapy could receive continued treatment beyond 12 cycles according to the treating physician’s consideration. Patients could receive prophylactic antiviral therapy; prophylactic antidiarrheals and antiemetics were not employed initially but could be considered upon development of diarrhea or nausea/vomiting.
AEs were monitored throughout the study and were graded according to National Cancer Institute Common Terminology Criteria for Adverse Events (NCI-CTCAE) v3.0. Response assessments were undertaken by investigators using a consistent imaging modality in accordance with RECIST 1.0 [23] on days 18–21 of cycle 2 and subsequent cycles. For patients with prostate cancer, response and progressive disease were based on RECIST for measurable neoplastic disease or on measurement of serum PSA per modified PCWG2 criteria in the absence of measurable sites.
The safety population included all patients who received ≥1 dose of ixazomib, and the DLT-evaluable population, which was used for determination of the MTD, comprised patients who received all cycle 1 doses of ixazomib or experienced a DLT in cycle 1. […] The response-evaluable population included all patients who received ≥1 dose of ixazomib, had measurable disease at baseline, and had ≥1 post-baseline disease assessment. Approximately 16 response-evaluable patients were planned to be evaluated in each MTD expansion cohort.
as §1

In the case of `CC(C)C[C@H](NC(=O)CNC(=O)c1cc(Cl)ccc1Cl)B(O)O` [ixazomib], the “Time to Emax, whole blood 20S proteasome” value ([1]; day 1, 0.125 mg/m^2 IV, n = 1) is reported as 1.0 h, the “Emax, whole blood 20S proteasome” value ([1]; day 1, 0.125 mg/m^2 IV, n = 1, individual value) is reported as 7.7 % inhibition and the “Time to Emax, whole blood 20S proteasome” value ([1]; day 1, 0.25 mg/m^2 IV, n = 1) is reported as 0.10 h. The “Emax, whole blood 20S proteasome” value ([1]; day 1, 0.25 mg/m^2 IV, n = 1, individual value) was 17.9 % inhibition, the “Time to Emax, whole blood 20S proteasome” value ([1]; day 1, 0.5 mg/m^2 IV, n = 1) was 0.25 h and the “Emax, whole blood 20S proteasome” value ([1]; day 1, 0.5 mg/m^2 IV, n = 1, individual value) was 28.2 % inhibition. For the same molecule, the “Emax, whole blood 20S proteasome” value ([1]; day 1, 1 mg/m^2 IV, n = 7, mean (± SD)) was 36.9 (±19.4) % inhibition, the “Time to Emax, whole blood 20S proteasome” value ([1]; day 1, 1 mg/m^2 IV, n = 7, median (range)) was 0.10 (0.08–0.10) h and the “Emax, whole blood 20S proteasome” value ([1]; day 1, 1.33 mg/m^2 IV, n = 4, mean (± SD)) was 46.7 (±9.4) % inhibition. The “Time to Emax, whole blood 20S proteasome” value ([1]; day 1, 1.33 mg/m^2 IV, n = 4, median (range)) was 0.25 (0.1–0.25) h, the “Emax, whole blood 20S proteasome” value ([1]; day 1, 1.76 mg/m^2 IV, n = 19, mean (± SD)) was 61.3 (±7.9) % inhibition and the “Time to Emax, whole blood 20S proteasome” value ([1]; day 1, 1.76 mg/m^2 IV, n = 19, median (range)) was 0.10 (0.067–0.267) h. The “Emax, whole blood 20S proteasome” value ([1]; day 1, 2.34 mg/m^2 IV, n = 3, mean (± SD)) was 64.4 (±3.4) % inhibition, the “Time to Emax, whole blood 20S proteasome” value ([1]; day 11, 0.125 mg/m^2 IV, n = 1) was 24.0 h and the “Emax, whole blood 20S proteasome” value ([1]; day 11, 0.125 mg/m^2 IV, n = 1, individual value) was 4.5 % inhibition. For the same molecule, the “Time to Emax, whole blood 20S proteasome” value ([1]; day 11, 0.25 mg/m^2 IV, n = 1) was 0.083 h, the “Emax, whole blood 20S proteasome” value ([1]; day 11, 0.25 mg/m^2 IV, n = 1, individual value) was 10.0 % inhibition and the “Time to Emax, whole blood 20S proteasome” value ([1]; day 11, 0.5 mg/m^2 IV, n = 1) was 0.1 h. For the same molecule, the “Emax, whole blood 20S proteasome” value ([1]; day 11, 0.5 mg/m^2 IV, n = 1, individual value) was 46.1 % inhibition, the “Emax, whole blood 20S proteasome” value ([1]; day 11, 1 mg/m^2 IV, n = 6, mean (± SD)) was 38.9 (±8.35) % inhibition and the “Time to Emax, whole blood 20S proteasome” value ([1]; day 11, 1 mg/m^2 IV, n = 6, median (range)) was 0.1 (0.0–0.117) h. For the same molecule, the “Emax, whole blood 20S proteasome” value ([1]; day 11, 1.33 mg/m^2 IV, n = 3, mean (± SD)) was 54.3 (±4.1) % inhibition, the “Time to Emax, whole blood 20S proteasome” value ([1]; day 11, 1.33 mg/m^2 IV, n = 3, median (range)) was 0.083 (0.083–0.1) h and the “Emax, whole blood 20S proteasome” value ([1]; day 11, 1.76 mg/m^2 IV, n = 15, mean (± SD)) was 62.5 (±7.71) % inhibition. For the same molecule, the “Time to Emax, whole blood 20S proteasome” value ([1]; day 11, 1.76 mg/m^2 IV, n = 15, median (range)) was 0.10 (0.083–0.283) h, the “Emax, whole blood 20S proteasome” value ([1]; day 11, 2.34 mg/m^2 IV, n = 3, mean (± SD)) was 72.5 (±4.71) % inhibition and the “Time to Emax, whole blood 20S proteasome” value ([1]; day 11, 2.34 mg/m^2 IV, n = 3, median (range)) was 0.10 (0.083-0.133) h. For the same molecule, the inhibition at 1.76 mg/m2 ([1]; read-out: Average maximal inhibition of 20S proteasome activity in whole blood) was 60%, the “Recovery of 20S proteasome activity to predose levels” value ([1]; single-dose administration on day 1, except dose level greater than the MTD) was no more than 24 h and the Any on-study deaths ([2]; Dose-escalation cohort (n=23)) was 3 (13) n (%). The Any on-study deaths ([2]; MTD expansion cohort H&N (n=22)) was 2 (9) n (%), the Any on-study deaths ([2]; MTD expansion cohort NSCLC (n=20)) was 0 n (%) and the Any on-study deaths ([2]; MTD expansion cohort PC (n=11)) was 0 n (%). The Any on-study deaths ([2]; MTD expansion cohort STS (n=20)) was 1 (5) n (%), the Any on-study deaths ([2]; MTD expansion cohort TPEC (n=20)) was 1 (5) n (%) and the Any on-study deaths ([2]; Total (N=116)) was 7 (6) n (%). The “Drug-related AE: alopecia” value ([2]; human, in vivo) was less than 1%, the “Drug-related AE: circumoral edema” value ([2]; human, in vivo) was less than 1% and the “Drug-related AE: dermatitis acneiform” value ([2]; human, in vivo) was 2%. For the same molecule, the “Drug-related AE: dry skin” value ([2]; human, in vivo) was 2%, the “Drug-related AE: erythema nodosum” value ([2]; human, in vivo) was less than 1% and the “Drug-related AE: exfoliative rash” value ([2]; human, in vivo) was less than 1%. The “Drug-related AE: night sweats” value ([2]; human, in vivo) was less than 1%, the “Drug-related AE: petechiae” value ([2]; human, in vivo) was less than 1% and the “Drug-related AE: pruritus” value ([2]; human, in vivo) was 4%. For the same molecule, the “Drug-related AE: rash” value ([2]; human, in vivo) was 6%, the “Drug-related AE: rash erythematous” value ([2]; human, in vivo) was 9% and the “Drug-related AE: rash macular” value ([2]; human, in vivo) was 13%. The “Drug-related AE: rash maculo-papular” value ([2]; human, in vivo) was 17%, the “Drug-related AE: rash papular” value ([2]; human, in vivo) was 10% and the “Drug-related AE: rash pruritic” value ([2]; human, in vivo) was 13%. The “Drug-related AE: skin exfoliation” value ([2]; human, in vivo) was less than 1%, the “Drug-related AE: skin hyperpigmentation” value ([2]; human, in vivo) was less than 1% and the “Drug-related AE: swelling face” value ([2]; human, in vivo) was less than 1%. For the same molecule, the “Drug-related AE: urticaria” value ([2]; human, in vivo) was less than 1%, the “Drug-related PN NEC” value ([2]; human, in vivo) was 15% and the “Drug-related PN NEC, grade 1” value ([2]; human, in vivo) was 6 n. The “Drug-related PN NEC, grade 2” value ([2]; human, in vivo) was 8 n, the “Drug-related grade ≥3 AE: erythema nodosum” value ([2]; human, in vivo) was less than 1% and the “Drug-related grade ≥3 AE: rash” value ([2]; human, in vivo) was less than 1%. For the same molecule, the “Drug-related grade ≥3 AE: rash erythematous” value ([2]; human, in vivo) was 2%, the “Drug-related grade ≥3 AE: rash macular” value ([2]; human, in vivo) was 3% and the “Drug-related grade ≥3 AE: rash maculo-papular” value ([2]; human, in vivo) was 7%. For the same molecule, the “Drug-related grade ≥3 AE: rash papular” value ([2]; human, in vivo) was less than 1%, the “Drug-related grade ≥3 AE: rash pruritic” value ([2]; human, in vivo) was 3% and the “Drug-related grade ≥3 fatigue” value ([2]; human, in vivo) was 9%. For the same molecule, the “Drug-related grade ≥3 thrombocytopenia” value ([2]; human, in vivo) was 23%, the “Drug-related serious AE: dehydration” value ([2]; human, in vivo) was 3% and the “Drug-related serious AE: fatigue” value ([2]; human, in vivo) was 3%. For the same molecule, the “Drug-related serious AE: nausea” value ([2]; human, in vivo) was 3%, the “Drug-related serious AE: thrombocytopenia” value ([2]; human, in vivo) was 6% and the “Drug-related serious AE: vomiting” value ([2]; human, in vivo) was 3%. For the same molecule, the “Drug-related serious AEs” value ([2]; human, in vivo) was 28%, the Drug-related thrombocytopenia ([2]; human, in vivo) was 45% and the “Duration of rash, median” value ([2]; human, in vivo) was 15 days. The “Duration of rash, range” value ([2]; human, in vivo) was 4 to 90 days, the “Grade 3 PN NEC” value ([2]; human, in vivo) was 3% and the “Patients who discontinued ixazomib due to treatment-emergent AEs” value ([2]; human, in vivo) was 15%. The “Patients who required platelet transfusions” value ([2]; human, in vivo) was 4%, the “Patients with ≥1 drug-related AE” value ([2]; human, in vivo) was 90% and the “Patients with ≥1 drug-related grade ≥3 AE” value ([2]; human, in vivo) was 57%. The “Patients with ≥1 treatment-emergent AE” value ([2]; human, in vivo) was 99%, the “Patients with ≥1 treatment-emergent grade ≥3 AE” value ([2]; human, in vivo) was 72% and the “Drug-related grade ≥3 skin and subcutaneous (SC) tissue disorders” value ([2]; human, in vivo, sc) was 16%. The “Treatment-related skin and subcutaneous (SC) tissue disorders” value ([2]; human, in vivo, sc) was 53% and the On-study deaths ([2]; none considered treatment-related) was “seven”.
